Molecular target: Nav1.8 sodium channel (Homo sapiens (Human), UniProt Q9Y5Y9)
Experiment: NaV1.8 blocking activity, manual patch clamp
Format: cell-based
Conditions: CHO cell line stably expressing Nav1.8
Method: The NaV1.8 blocking activity was determined by using a manual patch clamp technique to detect the effect of the subject on the channel currents of stably overexpressed Nav1.8.
CHO cell line stably expressing the Nav1.8 sodium channel was used for the experiments, gene information: sodium channel, voltage-gated, type 8, alpha (SCN10A), cDNA strictly similar to GenBank accession number: NM 006514.
Cells were cultured in HAM'S/F-12 medium containing 10% foetal bovine serum and 10 μg/mL Blasticidin, 200 μg/mL Hygromycin B, and 100 μg/mL Zeocin at 37° C., 5% CO2. For expansion or maintenance cultures, cells were treated with 0.25%-Trypsin-EDTA, washed and centrifuged, and then inoculated in 6-cm cell culture dishes with 2.5×10^5lls per cell culture dish (final volume: 5 mL).
Prior to the patch clamp detection, cells were separated with 0.25%-Trypsin-EDTA and 6.5×10^3 cells were spread onto coverslips and incubated (final volume: 500 μL) in 24-well plates for 18 hours, then the test was performed.
50 mM CsCl, 10 mM NaCl, 10 mM HEPES, 60 mM CsF, 20 mM EGTA, and pH was adjusted to 7.2 with CsOH. • Instrument information is provided in Table 2 below:
Prior to Nav1.8 channel current testing, a blank control solution (DMSO) was diluted into 10 ml of extracellular fluid as the working solution. Positive controls and subjects were first diluted with different doses of DMSO depending on the final concentration before being diluted as working solution using extracellular fluid. 100 nM TTX was added to each working solution to block the TTX-S current. The working solution was sonicated for 20 min before performing the patch clamp test detection.
Patch clamp manipulation: firstly, the capillary glass tube was drawn into a recording electrode using a microelectrode puller, then the electrode filled with intracellular fluid was loaded into the microelectrode holder, and the microelectrode manipulator was manoeuvred under an inverted microscope to immerse the electrode into the extracellular fluid and record the electrode resistance (Rpip). The electrode was then slowly contacted to the cell surface and negative pressure suction was given to form a GQ2 seal. At this time, fast capacitance compensation was performed and negative pressure was continually applied to suction through the cell membrane to form a whole-cell recording pattern. Finally, slow capacitance compensation was performed and experimental parameters such as series resistance (Rs) were recorded. No leakage compensation was given.
Drug administration was initiated when the Nav1.8 current was stabilized for whole-cell recordings, and the next concentration was detected after each drug concentration had acted for approximately 5 min (or until the current was stable). Cell-lined coverslips were placed in the recording bath under an inverted microscope, and the blank control external solution as well as the working solution of the compound to be tested flowed sequentially from low to high concentrations through the recording bath by using gravitational perfusion and thus acted on the cells, and a peristaltic pump was used to exchange fluids during the recording. The current detected by each cell in the compound-free external fluid served as its own control. Each concentration was repeated independently 2-3 times. All electrophysiological experiments were performed at room temperature.
The voltage stimulation scheme for whole-cell patch-clamp recording of Nav1.8 currents was as follows: when a whole-cell seal was formed, the voltage was clamped at −120 mV. The resting state recording of sodium currents was performed by maintaining the voltage for 5s and then depolarizing it to 0 mV, and then administering a depolarizing pulse (TP1) to 0 m V for 50 ms for detecting the resting state sodium currents. For half-inactivated state recording, the voltage was first stepped at different voltages and maintained for 5s and then a depolarizing pulse was given to 0 mV to detect the Vhalf. […]

Chain of Nav1.8 sodium channel (Q9Y5Y9 whole entry): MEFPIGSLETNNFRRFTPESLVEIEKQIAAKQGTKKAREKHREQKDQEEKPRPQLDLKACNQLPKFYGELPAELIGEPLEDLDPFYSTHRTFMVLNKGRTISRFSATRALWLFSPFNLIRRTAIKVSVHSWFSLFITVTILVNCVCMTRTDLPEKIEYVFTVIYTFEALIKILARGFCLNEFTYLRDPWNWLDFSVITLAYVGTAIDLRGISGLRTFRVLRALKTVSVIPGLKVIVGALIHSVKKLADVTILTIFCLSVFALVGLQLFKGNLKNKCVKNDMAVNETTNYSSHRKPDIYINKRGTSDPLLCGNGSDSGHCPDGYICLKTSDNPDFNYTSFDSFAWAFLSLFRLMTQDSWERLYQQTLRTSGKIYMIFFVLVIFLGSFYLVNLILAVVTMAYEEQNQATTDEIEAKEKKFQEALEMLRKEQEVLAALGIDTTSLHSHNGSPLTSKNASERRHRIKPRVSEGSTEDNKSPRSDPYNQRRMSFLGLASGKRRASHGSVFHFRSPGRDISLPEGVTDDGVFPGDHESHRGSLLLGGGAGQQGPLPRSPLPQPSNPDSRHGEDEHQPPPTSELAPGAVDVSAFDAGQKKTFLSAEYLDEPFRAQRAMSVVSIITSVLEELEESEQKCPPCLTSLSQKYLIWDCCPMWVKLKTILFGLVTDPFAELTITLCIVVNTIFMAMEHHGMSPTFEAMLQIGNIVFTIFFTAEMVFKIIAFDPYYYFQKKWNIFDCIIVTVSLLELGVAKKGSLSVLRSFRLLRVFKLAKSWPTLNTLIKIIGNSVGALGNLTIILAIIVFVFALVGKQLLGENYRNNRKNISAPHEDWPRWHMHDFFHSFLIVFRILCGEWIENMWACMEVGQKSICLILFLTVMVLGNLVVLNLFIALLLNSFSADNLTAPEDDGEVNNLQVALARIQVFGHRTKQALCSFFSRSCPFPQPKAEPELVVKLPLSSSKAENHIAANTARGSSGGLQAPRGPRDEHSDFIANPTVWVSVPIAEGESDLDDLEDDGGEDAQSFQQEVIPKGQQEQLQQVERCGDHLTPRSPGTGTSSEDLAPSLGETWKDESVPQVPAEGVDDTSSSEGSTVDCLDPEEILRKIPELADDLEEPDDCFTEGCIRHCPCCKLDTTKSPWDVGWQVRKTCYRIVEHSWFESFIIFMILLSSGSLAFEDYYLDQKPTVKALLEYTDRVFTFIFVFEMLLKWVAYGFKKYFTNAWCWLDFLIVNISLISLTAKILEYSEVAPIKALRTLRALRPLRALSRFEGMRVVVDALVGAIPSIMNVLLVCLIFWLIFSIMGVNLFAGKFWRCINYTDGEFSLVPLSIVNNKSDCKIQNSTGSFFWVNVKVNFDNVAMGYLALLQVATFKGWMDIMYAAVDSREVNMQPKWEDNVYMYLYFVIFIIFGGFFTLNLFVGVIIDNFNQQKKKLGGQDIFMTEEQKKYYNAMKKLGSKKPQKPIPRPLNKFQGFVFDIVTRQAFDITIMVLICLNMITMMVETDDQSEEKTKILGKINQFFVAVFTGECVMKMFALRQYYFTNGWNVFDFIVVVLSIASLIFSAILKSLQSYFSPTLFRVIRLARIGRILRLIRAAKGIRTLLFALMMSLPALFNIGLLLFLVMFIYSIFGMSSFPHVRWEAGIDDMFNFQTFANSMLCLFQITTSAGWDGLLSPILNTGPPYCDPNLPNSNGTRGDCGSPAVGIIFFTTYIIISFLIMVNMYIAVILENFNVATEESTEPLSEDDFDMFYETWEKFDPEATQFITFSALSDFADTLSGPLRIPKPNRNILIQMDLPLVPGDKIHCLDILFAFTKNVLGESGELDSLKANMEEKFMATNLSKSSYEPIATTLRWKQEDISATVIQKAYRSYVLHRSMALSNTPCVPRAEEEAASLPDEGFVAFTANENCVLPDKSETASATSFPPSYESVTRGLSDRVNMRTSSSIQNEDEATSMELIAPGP

| Compound | Blocking rate (%) @3 nM | Blocking rate(%) @10 nM |
| --- | --- | --- |
| 4-((2R,3S,4S,5R)-3-(3,4-difluoro-2-(methoxy-d3)phenyl)-4,5-dimethyl-1-(2,2,2-trifluoroacetyl)-5-(trifluoromethyl) pyrrolidine-2-carboxamido)pyridinamide [Compound 17] | 28.89% | 77.24% |
| COc1c([C@@H]2[C@@H](C(=O)Nc3ccnc(C(N)=O)c3)N[C@](C)(C(F)(F)F)[C@@H]2C)ccc(F)c1F [Compound 2, 4-((2S,3R,4R,5S)-3-(3,4-difluoro-2-methoxyphenyl)-4,5-dimethyl-5-(trifluoromethyl)pyrrolidine-2-carboxamido)pyridine amide] |  | 9.30% |
| COc1c([C@H]2[C@H](C(=O)Nc3ccnc(C(N)=O)c3)N(C)[C@@](C)(C(F)(F)F)[C@H]2C)ccc(F)c1F [Compound 3, 4-((2R,3S,4S,5R)-3-(3,4-difluoro-2-methoxyphenyl)-1,4,5-trimethyl-5-(trifluoromethyl)pyrrolidine-2-carboxamido)pyridine amide] |  | 84.03% |
| COc1c([C@@H]2[C@@H](C(=O)Nc3ccnc(C(N)=O)c3)N(C)[C@](C)(C(F)(F)F)[C@@H]2C)ccc(F)c1F [Compound 4, 4-((2S,3R,4R,5S)-3-(3,4-difluoro-2-methoxyphenyl)-1,4,5-trimethyl-5-(trifluoromethyl)pyrrolidine-2-carboxamido)pyridine amide] |  | 6.05% |
| [2H]C([2H])([2H])Oc1c([C@H]2[C@H](C(=O)Nc3ccnc(C(=N)NOC)c3)N[C@@](C)(C(F)(F)F)[C@H]2C)ccc(F)c1F [Compound 15, (2R,3S,4S,5R)-3-(3,4-difluoro-2-(methoxy-d3)phenyl)-N-(2-(N-methoxycarbamimidoyl)pyridin-4-yl)-4,5-dimethyl-5-(trifluoromethyl) pyrrolidine-2-carboxamide] | 35.55% | 79.44% |
| [2H]C([2H])([2H])Oc1c([C@H]2[C@H](C(=O)Nc3cc[n+]([O-])c(C(N)=O)c3)N[C@@](C)(C(F)(F)F)[C@H]2C)ccc(F)c1F [Compound 18, 2-carbamoyl-4-((2R,3S,4S,5R)-3-(3,4-difluoro-2-(methoxy-d3)phenyl)-4,5-dimethyl-5-(trifluoromethyl)pyrrolidine-2-carboxamido)pyridine 1-oxide] | 40.29% | 63.01% |

Results, then the compound that gave them:

| Blocking rate (%) @3 nM | Blocking rate(%) @10 nM | Compound |
| --- | --- | --- |
| 72.73% | 79.03% | COc1c([C@H]2[C@H](C(=O)Nc3ccc([C@H](O)CO)nc3)N[C@@](C)(C(F)(F)F)[C@H]2C)ccc(F)c1F [Compound 5, (2R,3S,4S,5R)-3-(3,4-difluoro-2-methoxyphenyl)-aza-(6-((S)-1,2-dihydroxyethyl)pyridin-3-yl)-4,5-dimethyl-5-(trifluoromethyl) pyrrolidine-2-carboxamide] |
| 20.06% | 45.92% | COc1c([C@H]2[C@H](C(=O)Nc3ccc([C@@H](O)CO)nc3)N[C@@](C)(C(F)(F)F)[C@H]2C)ccc(F)c1F [Compound 6, (2R,3S,4S,5R)-3-(3,4-difluoro-2-methoxyphenyl)-aza-(6-((R)-1,2-dihydroxyethyl)pyridin-3-yl)-4,5-dimethyl-5-(trifluoromethyl) pyrrolidine-2-carboxamide] |
| 58.06% | 84.91% | COc1c([C@H]2[C@H](C(=O)Nc3ccnc(S(N)(=O)=O)c3)N[C@@](C)(C(F)(F)F)[C@H]2C)ccc(F)c1F [Compound 9, (2R,3S,4S,5R)-3-(3,4-difluoro-2-methoxyphenyl)-4,5-dimethyl-aza-(2-aminosulfonylpyridin-4-yl)-5-(trifluoromethyl) pyrrolidine-2-carboxamide] |
| 77.43% | 88.65% | COc1c([C@H]2[C@H](C(=O)Nc3ccnc(S(C)(=O)=O)c3)N[C@@](C)(C(F)(F)F)[C@H]2C)ccc(F)c1F [Compound 12, (2R,3S,4S,5R)-3-(3,4-difluoro-2-methoxyphenyl)-4,5-dimethyl-N-(2-(methylsulfonyl)pyridin-4-yl)-5-(trifluoromethyl) pyrrolidine-2-carboxamide] |
| 75.71% | 92.01% | C[C@H]1[C@@H](c2ccc(F)c(F)c2OC(F)F)[C@H](C(=O)Nc2ccnc(C(N)=O)c2)N[C@@]1(C)C(F)(F)F [Compound 13, 4-((2R,3S,4S,5R)-3-(2-(difluoromethoxy)-3,4-difluorophenyl)-4,5-dimethyl-5-(trifluoromethyl)pyrrolidine-2-carboxamido)pyridinamide] |
| 91.40% | 99.51% | [2H]C([2H])([2H])Oc1c([C@H]2[C@H](C(=O)Nc3ccc(F)c(C(=N)NO)c3)N[C@@](C)(C(F)(F)F)[C@H]2C)ccc(F)c1F [Compound 14, (2R,3S,4S,5R)-3-(3,4-difluoro-2-(methoxy-d3)phenyl)-N-(4-fluoro-3-(N-hydroxycarbamimidoyl)phenyl)-4,5-dimethyl-5-(trifluoromethyl) pyrrolidine-2-carboxamide] |
| 6.68% | 25.19% | [2H]C([2H])([2H])Oc1c([C@H]2[C@H](C(=O)Nc3ccnc(C(=N)NO)c3)N[C@@](C)(C(F)(F)F)[C@H]2C)ccc(F)c1F [Compound 16, (2R,3S,4S,5R)-3-(3,4-difluoro-2-(methoxy-d3)phenyl)-N-(2-(N-hydroxycarbamimidoyl)pyridin-4-yl)-4,5-dimethyl-5-(trifluoromethyl) pyrrolidine-2-carboxamide] |
| 26.22% | 55.68% | C[C@H]1[C@@H](c2ccc(F)c(F)c2OC(F)F)[C@H](C(=O)Nc2ccnc(C(N)=O)c2)N[C@@]1(C)C(F)(F)F [Compound 19, 4-((2R,3S,4S,5R)-3-(2-(difluoromethoxy)-3,4-difluorophenyl)-4,5-dimethyl-5-(trifluoromethyl)pyrrolidine-2-carboxamido)pyridinamide] |
